Where “and” joins values, the source holds several entries; their conditions need not be identical. Identical values can stand only once. Like-named read-outs stand apart in the source and are kept apart here.
How the values were obtained:
[1] = tested on: TAMH cells overexpressing Bcl-xL (TAMH-Bcl-xL, Tabx2s); assay: Cytotoxicity / apoptosis induction in TAMH cells overexpressing Bcl-xL; format: cell-based
Description: (§1) To examine the sensitivity of cells over-expressing Bcl-xL to various mitochondrial inhibitors and apoptosis inducers, cell lines over-expressing Bcl-xL were prepared and tested according to Hockenberry et al. U.S. Pat. No. 7,241,804, hereby incorporated by reference in its entirety. Competitive binding of compounds with fluorescent antimycin A3, and competitive binding of compounds with BH3 peptide and Bcl-2. Competitive binding of compounds with BH-3 peptide were also measured using Bcl-xL as previously described. Id.
(§2) Cell lines were grown in RPMI 1640 medium (Gibco, Grand Island, N.Y.) supplemented with 5% fetal bovine serum (Hyclone, Logan, Utah). Also shown is the ratio of TAMH cells expressing Bcl-xL to those expressing A142L (WT:142L). The assay measures the potency of various compounds with respect to inducing apoptosis in these cells.
(§3) The compounds described in Example 2 were tested for their ability to inhibit Bcl-2 gain-of-function in TAMH cells, TAMH cells overexpressing […] (TAMH-Bcl-xL), TAMH cells transfected with Neo vector (Neo), TAMH cells over expressing a variant of Bcl-xL (A142L) using the methods of Example 1. 3-6.
(§4) The effects of the compounds described in Example 8 on TAMH cells, TAMH cells overexpressing Bcl-xL (TAMH-Bcl-xL), TAMH cells transfected with Neo vector (Neo), TAMH cells over expressing a variant of Bcl-xL (A142L) is shown in Table 8
(§5) The effects of the compounds described in Example 10 on TAMH cells, TAMH cells overexpressing Bcl-xL (TAMH-Bcl-xL), TAMH cells transfected with Neo vector (Neo), TAMH cells over expressing a variant of Bcl-xL (A142L) is shown in the following Table 10

[2] = tested on: TAMH cells transfected with Neo vector (Neo); assay: Cytotoxicity / apoptosis induction in TAMH cells transfected with Neo vector; format: cell-based; conditions: for IC50: read-out: IC50 TAMH Neo
Description: as §1, §2, §3, §4, §5

[3] = Table 10, read-out: IC50 TAMH Bcl-XL

SMILES | Fold Select. (Neo/Bcl-XL) ([1]; Table 10) | IC50 [1, 3] [µM] | IC50 ([2]; Table 10) [µM] | other results
COc1ccc(C)cc1Cc1cc(C)cc(Cc2cc(C)ccc2O)c1OC [Compound 0036] | – | – | – | EC50 ([1]; Table 5, TAMH cells overexpressing Bcl-xL (Tabx2s), read-out: 2S EC50): 1.9 µM; EC50 ([2]; Table 5, TAMH Neo cells, read-out: Neo EC50): 17.5 µM
Oc1c(Cl)cc(Cl)cc1Sc1cc(Cl)cc(Cl)c1O [Compound 47129] | 4.6 | 0.5 | 2.3 | –
Oc1ccc(Cl)cc1Sc1cc(Cl)ccc1O [Compound 55636] | 7.7 | 1.9 | 14.7 | EC50 ([1]; Table 8, read-out: TAMH Bcl-xL): 1.9 µM; Neo/Bcl-xL ([1]; Table 8, selectivity ratio): 7.7; EC50 ([2]; Table 8, read-out: TANH Neo): 14.7 µM
O=[N+]([O-])c1ccc(S(=O)(=O)C2CCCCC2Cl)c([N+](=O)[O-])c1 (stereo not shown) [Compound 405645] | – | – | – | Fold Selectivity (Neo/Bcl-XL) ([1]; Table 15): 2.1; IC50 ([1]; Table 15, read-out: IC50 TAMH Bcl-XL): 2.9 µM; IC50 ([2]; Table 15): 6.1 µM
COc1ccccc1Cc1ccccc1OC [Compound 78834] | – | – | – | Fold Select. (Neo/Bcl-XL) ([1]; Table 11): 0
Cc1cc(Sc2cc(C)cc(C(C)(C)C)c2O)c(O)c(C(C)(C)C)c1 [Compound 67488] | 6.8 | 14.6 | – | –
CC(=O)c1cc(Cc2cc(C)cc(C)c2O)c(O)c(Cc2cc(C)cc(C)c2O)c1 [Compound 48705] | – | – | – | Fold Select. (Neo/Bcl-xL) ([1]; Table 13): 0
Cc1cc(O)c(Sc2c(O)cc(C)cc2C(C)(C)C)c(C(C)(C)C)c1 [Compound 59685] | 5.5 | 12 | 66.4 | –
Oc1c(Cl)cc(Cl)cc1Sc1cc(Cl)cc(Cl)c1O [Compound 9872] | 3.3 | 2.3 | 7.5 | –
Oc1c(CCl)cc(Cl)cc1Cc1cc(Cl)cc(Cc2cc(Cl)cc(CCl)c2O)c1O [Compound 48444] | – | – | – | Fold Select. (Neo/Bcl-xL) ([1]; Table 13): 9.3; IC50 ([1]; Table 13, read-out: IC50 TAMH Bcl-xL): 1.3 µM; IC50 ([2]; Table 13): 12.1 µM
Cc1cc(Cc2cc(C)cc(C(C)(C)C)c2O)c(O)c(C(C)(C)C)c1 [Compound 7781] | 2.8 | 1.6 | 4.5 | –
Cc1cc(O)c(Sc2c(O)cc(C)c(Cl)c2C)c(C)c1Cl [Compound 52168] | 5.2 | 1 | 5.2 | –
Cc1c(Cl)c(C)c(Sc2c(C)c(Cl)c(C)c(Br)c2O)c(O)c1Br [Compound 9874] | 2.8 | 0.7 | 2 | –
CC(C)c1ccc(Sc2ccc(C(C)C)cc2O)c(O)c1 [Compound 39635] | 1.3 | 4.3 | 7.8 | –
Cc1cc(O)c(Sc2c(O)cc(C)c(Cl)c2C)c(C)c1Cl [Compound 9875] | 6.3 | 0.9 | 5.7 | –
O=C(O)c1cc(Cl)cc(Cc2cc(Cl)cc(C(=O)O)c2O)c1O [Compound 48684] | – | – | – | Fold Select. (Neo/Bcl-XL) ([1]; Table 11): 0
Cc1cc(O)c(O)c(Oc2cc(C)cc(O)c2O)c1 [Compound 330927] | 5 | 19.8 | – | –
CC(C)(C)c1ccc(O)c(Sc2cc(C(C)(C)C)ccc2O)c1 [Compound 2855] | – | – | – | Fold Select. (Neo/Bcl-XL) ([1]; Table 11): 0
CN(C)Cc1cc(Cl)cc(Cc2cc(Cl)cc(CN(C)C)c2O)c1O.Cl [Compound 39242] | – | – | – | Fold Select. (Neo/Bcl-XL) ([1]; Table 11): 0
CC(=O)Nc1ccc(Sc2ccc(NC(C)=O)cc2O)c(O)c1 [Compound 4581] | – | – | – | Fold Select. (Neo/Bcl-XL) ([1]; Table 11): 0
Cc1cc(Cc2cc(C)c(N)cc2N)c(N)cc1N [Compound 7215] | – | – | – | Fold Select. (Neo/Bcl-XL) ([1]; Table 11): 0
Cc1cc(C)c(O)c(Cc2cccc(Cc3cc(C)cc(C)c3O)c2O)c1 [Compound 48168] | – | – | – | Fold Select. (Neo/Bcl-xL) ([1]; Table 13): 0
Cc1cc(Cc2cc(C)cc(C(C)(C)C)c2O)c(O)c(Cc2cc(C)cc(C(C)(C)C)c2O)c1 [Compound 62914] | – | – | – | Fold Select. (Neo/Bcl-xL) ([1]; Table 13): > 20 and 22.7
O=[N+]([O-])c1ccc(S(=O)(=O)c2ccccc2)c2nonc12 [Compound 0219] | – | – | – | EC50 ([1]; Table 6, TAMH cells overexpressing Bcl-xL (Tabx2s), read-out: 2S EC50): 7.6 µM
COc1cc(C)ccc1C(=O)c1ccc(C)cc1OC [Compound 143532] | – | – | – | Fold Select. (Neo/Bcl-XL) ([1]; Table 11): 0
Oc1ccc(Sc2ccc(O)cc2O)c(O)c1 [Compound 59828] | – | – | – | Fold Select. (Neo/Bcl-XL) ([1]; Table 11): 0
Cc1cc(Cc2cc(Cc3cc(C)cc(C(C)(C)C)c3O)c(C)cc2C)c(O)c(C(C)(C)C)c1 [Compound 57725] | – | – | – | Fold Select. (Neo/Bcl-xL) ([1]; Table 13): −0

From patent US8865901B2, “Gain-of-function Bcl-2 inhibitors” (priority 2009, dated 2014)
